Patent publication EP1247803A2, “Indolinone compounds suitable for modulation of protein kinases” (Sugen, Inc., priority 1996, dated 1998)

Legend:
EGFR = target: T1, EGFR (Homo sapiens, UniProt P00533); assay: EGFR ELISA assay (in vitro kinase activity, EGFR captured from A431 cell lysate); format: biochemical; design: concentration or dose not given beside the values
T1 construct: Add 7 ug A431 cell lysate per well (EGFR source); endogenous in cells; host or cells: A431
Summary of the method: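 EGFR from A431 lysate was captured on plates coated with anti-EGFR antibody. Compounds were added 30 min before a 5 min phosphorylation with 3 µM ATP/5 mM MnCl2, which was stopped with 20 mM EDTA. Phosphotyrosine was detected with rabbit anti-phosphotyrosine, then a peroxidase-conjugated secondary and ABTS/H2O2, read at 410 nm.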

MET = MET biochemical kinase assay; design: species or system human; concentration or dose not given beside the values
Summary of the method: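 Colorimetric signal from an HRP-linked anti-phosphotyrosine antibody with TMB measures phosphate incorporated into immobilised MET. The receptor is pulled from lysates by a polyclonal antibody against its cytoplasmic domain, then reacts in ATP- and metal-containing buffer with test compound.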

T1 sequence (P00533 25-1210): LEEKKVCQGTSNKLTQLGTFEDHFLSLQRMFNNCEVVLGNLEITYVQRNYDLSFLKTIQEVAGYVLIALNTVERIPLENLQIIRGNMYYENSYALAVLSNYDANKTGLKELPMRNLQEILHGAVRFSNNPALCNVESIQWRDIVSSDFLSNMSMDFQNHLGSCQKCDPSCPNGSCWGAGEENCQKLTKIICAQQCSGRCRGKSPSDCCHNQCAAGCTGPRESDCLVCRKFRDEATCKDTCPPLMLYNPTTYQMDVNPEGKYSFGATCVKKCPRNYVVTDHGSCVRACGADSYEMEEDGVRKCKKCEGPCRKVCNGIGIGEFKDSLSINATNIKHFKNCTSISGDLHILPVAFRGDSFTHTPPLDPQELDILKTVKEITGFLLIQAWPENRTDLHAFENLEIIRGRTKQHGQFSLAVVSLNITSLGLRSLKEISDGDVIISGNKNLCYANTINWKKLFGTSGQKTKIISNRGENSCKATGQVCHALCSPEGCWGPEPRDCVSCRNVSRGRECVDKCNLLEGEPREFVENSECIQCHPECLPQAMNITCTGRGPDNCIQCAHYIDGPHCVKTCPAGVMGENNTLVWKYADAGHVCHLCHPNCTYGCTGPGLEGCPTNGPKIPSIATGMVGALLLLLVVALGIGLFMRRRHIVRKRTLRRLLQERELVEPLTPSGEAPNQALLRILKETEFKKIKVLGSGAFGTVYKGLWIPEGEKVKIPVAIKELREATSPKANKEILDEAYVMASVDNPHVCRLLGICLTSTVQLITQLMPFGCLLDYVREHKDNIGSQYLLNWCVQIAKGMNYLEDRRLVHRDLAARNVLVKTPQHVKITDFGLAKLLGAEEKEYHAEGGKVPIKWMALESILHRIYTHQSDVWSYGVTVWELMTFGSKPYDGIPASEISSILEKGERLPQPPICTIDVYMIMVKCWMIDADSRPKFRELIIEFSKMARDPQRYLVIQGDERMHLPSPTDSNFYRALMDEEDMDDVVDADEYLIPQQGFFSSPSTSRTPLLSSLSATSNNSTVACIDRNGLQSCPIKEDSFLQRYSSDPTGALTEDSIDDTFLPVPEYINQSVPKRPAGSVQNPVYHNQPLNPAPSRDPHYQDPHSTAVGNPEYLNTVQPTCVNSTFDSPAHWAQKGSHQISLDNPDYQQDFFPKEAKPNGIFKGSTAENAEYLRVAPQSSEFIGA

SMILES: Cc1cc(O)cc(O)c1C=C1C(=O)Nc2ccc(S(=O)(=O)Nc3ccc(C(F)(F)F)cc3)cc21 [10720/E08]
- Biochem EGFR %Inhibition (EGFR): 37.4%
- Met Kinase % Inhibition (MET): 55.1%

SMILES: CCOc1cc(C=C2C(=O)Nc3ccc(CCCl)cc32)ccc1O [10720/G09]
- Biochem EGFR %Inhibition (EGFR): -19.7%
- Met Kinase % Inhibition (MET): 49.5%

SMILES: CCOc1cc(C=C2C(=O)Nc3ccc(S(=O)(=O)N4CCOCC4)cc32)ccc1O [10720/F09]
- Biochem EGFR %Inhibition (EGFR): 6.4%
- Met Kinase % Inhibition (MET): 49.2%

SMILES: Cc1cc(C)c(C=C2C(=O)Nc3c(Br)cc(Br)cc32)[nH]1 [10721/A08]
- Biochem EGFR %Inhibition (EGFR): 24.0%
- Met Kinase % Inhibition (MET): 29.9%

SMILES: CSc1ccc(C=C2C(=O)Nc3ccc(S(=O)(=O)N4CCOCC4)cc32)s1 [10720/F07]
- Biochem EGFR %Inhibition (EGFR): 35.2%
- Met Kinase % Inhibition (MET): 64.6%

SMILES: Cc1cc(C=C2C(=O)Nc3ccc(Br)c(C)c32)sc1C [10721/C04]
- Biochem EGFR %Inhibition (EGFR): 77.7%
- Met Kinase % Inhibition (MET): 88.7%

SMILES: CCOc1cc(C=C2C(=O)Nc3ccc(S(=O)(=O)Nc4ccc(C(F)(F)F)cc4)cc32)ccc1O [10720/E09]
- Biochem EGFR %Inhibition (EGFR): 56.4%
- Met Kinase % Inhibition (MET): 43.4%

SMILES: CNS(=O)(=O)c1ccc2c(c1)C(=Cc1ccc(O)c(C(C)(C)C)c1)C(=O)N2 [10721/D09]
- Biochem EGFR %Inhibition (EGFR): 15.3%
- Met Kinase % Inhibition (MET): -4.9%

SMILES: CNS(=O)(=O)c1ccc2c(c1)C(=Cc1cc([N+](=O)[O-])cc(CCl)c1O)C(=O)N2 [10721/D06]
- Biochem EGFR %Inhibition (EGFR): 44.5%
- Met Kinase % Inhibition (MET): 9.0%

SMILES: O=C1Nc2ccc(S(=O)(=O)N3CCOCC3)cc2C1=Cc1ccccc1 [10720/F06]
- Biochem EGFR %Inhibition (EGFR): -24.3%
- Met Kinase % Inhibition (MET): 21.9%

SMILES: Cc1c(Br)ccc2c1C(=Cc1c[nH]c3ccccc13)C(=O)N2 [10717/C06]
- Biochem EGFR %Inhibition (EGFR): -49.7%
- Met Kinase % Inhibition (MET): 44.1%

SMILES: COc1ccc(C=C2C(=O)Nc3ccc(CCCl)cc32)cc1OC [10720/G04]
- Biochem EGFR %Inhibition (EGFR): -34.1%
- Met Kinase % Inhibition (MET): 5.0%

SMILES: CC(C)(C)c1cc(C=C2C(=O)Nc3c(Br)cc(Br)cc32)cc(C(C)(C)C)c1O [10721/A11]
- Biochem EGFR %Inhibition (EGFR): 24.6%
- Met Kinase % Inhibition (MET): 23.9%

SMILES: Cc1c(Br)ccc2c1C(=Cc1nc3ccccc3n1C)C(=O)N2 [10721/C02]
- Biochem EGFR %Inhibition (EGFR): 68.3%
- Met Kinase % Inhibition (MET): 59.2%

SMILES: Cc1c(Br)ccc2c1C(=Cc1ccc[nH]1)C(=O)N2 [10717/C09]
- Biochem EGFR %Inhibition (EGFR): 8.1%
- Met Kinase % Inhibition (MET): 47.7%

SMILES: Cc1cc(O)cc(O)c1C=C1C(=O)Nc2ccc(S(=O)(=O)N3CCOCC3)cc21 [10720/F08]
- Biochem EGFR %Inhibition (EGFR): -39.6%
- Met Kinase % Inhibition (MET): 36.2%

SMILES: Cc1c(Br)ccc2c1C(=Cc1cc(C(C)(C)C)c(O)c(C(C)(C)C)c1)C(=O)N2 [10721/C11]
- Biochem EGFR %Inhibition (EGFR): 14.1%
- Met Kinase % Inhibition (MET): 3.7%

SMILES: CNS(=O)(=O)c1ccc2c(c1)C(=Cc1ccc(SC)s1)C(=O)N2 [10720/D07]
- Biochem EGFR %Inhibition (EGFR): 14.8%
- Met Kinase % Inhibition (MET): 36.2%

SMILES: O=C1Nc2ccc(S(=O)(=O)Nc3ccc(C(F)(F)F)cc3)cc2C1=Cc1ncc[nH]1 [10720/E11]
- Biochem EGFR %Inhibition (EGFR): -65.5%
- Met Kinase % Inhibition (MET): -10.4%
